Among the test systems are HOP-62 NSCLC; HOP-92 NSCLC; HCC-2998 colon; SW-620 colon; MDA-MB-435; SNB-75 CNS; HT29 colon; OVCAR-8 ovarian; RPMI-8226 leukemia; K-562 leukemia.
What all share (assay): growth of human tumour cells (NCI), 48 h

Values joined by “and” are separate entries in the source; they are usually repeats but may differ in a detail not shown here. Equal entries are not always repeated.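 Interpolation was linear, between the two tested concentrations surrounding the appropriate level; five concentrations were tested over 48 hours in 96-well plates. GI50 is the concentration that inhibits growth by half. TGI: total growth inhibition.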

On to `CC(C)OC(=O)[C@H](C)NP(=O)(OC[C@H]1O[C@@H](n2ccc(=O)[nH]c2=O)[C@](C)(F)[C@@H]1O)Oc1ccccc1` (some centres undefined), for which the GI50 in the assay on HOP-62 NSCLC is above 100 µM; in the assay with HOP-92 NSCLC, above 100000 nM; with HCC-2998 colon, above 100 µM; in the assay on SW-620 colon it was above 100 µM; in the assay with MDA-MB-435, above 100 µM; in the assay with SNB-75 CNS, above 100 µM. In addition, the GI50 with HT29 colon and with OVCAR-8 ovarian was above 100 µM each time. Further, the TGI with HOP-62 NSCLC, in the assay on HOP-92 NSCLC, in the assay on HCC-2998 colon, in the assay with SW-620 colon, in the assay with MDA-MB-435 and with SNB-75 CNS was above 100 µM throughout. The TGI in the assay on HT29 colon and with OVCAR-8 ovarian was above 100 µM each time.

Turning to `Nc1ccn(C2OC(CO)C(O)C2O)c(=O)n1` (centres undefined), the GI50 in the assay with HOP-62 NSCLC is 0.237 µM; with RPMI-8226 leukemia, 3.75 µM; in the assay on HCC-2998 colon, 1.69 µM; with SW-620 colon it was 0.847 µM; in the assay on MDA-MB-435, 0.671 µM; in the assay on HT29 colon, 2.01 µM. Also, the GI50 with K-562 leukemia is 477 nM and 464 nM and 4640 nM; in the assay with OVCAR-8 ovarian, 0.392 µM. The TGI is above 500 µM with RPMI-8226 leukemia; > 100 µM and 429 µM and > 500 µM in the assay with HCC-2998 colon; > 100 µM and 462 µM and > 500 µM with SW-620 colon; above 500 µM with MDA-MB-435; above 500 µM in the assay on SNB-75 CNS; above 500 µM with HT29 colon. The TGI in the assay with K-562 leukemia and in the assay with OVCAR-8 ovarian was above 500 µM throughout.

Consider `COc1ccc(/C(=C\C=C(C#N)C#N)Sc2nc3ccccc3s2)cc1`, for which the GI50 in the assay on HOP-62 NSCLC is 8.16 µM; in the assay on HOP-92 NSCLC it was 717 nM; in the assay with HCC-2998 colon it was 9.02 µM; with SW-620 colon it was 1.77 µM; in the assay on MDA-MB-435 it was 8.34 µM; in the assay with HT29 colon it was 1.54 µM. For the same compound, the GI50 in the assay with K-562 leukemia was 1580 nM; in the assay on OVCAR-8 ovarian, 13.7 µM. In addition, the TGI with HOP-62 NSCLC was 16.7 µM; with HOP-92 NSCLC, 4.14 µM; in the assay on HCC-2998 colon, 16.9 µM; in the assay on SW-620 colon, above 50 µM; with MDA-MB-435, 18.5 µM; with HT29 colon, 6.06 µM. Besides, the TGI in the assay on K-562 leukemia is above 50 µM; in the assay with OVCAR-8 ovarian it was 33.9 µM.

Turning to `CC12CCC3c4ccc(O)cc4CCC3C1C/C(=N\O)C2O` (centres undefined), the TGI in the assay with HOP-62 NSCLC, in the assay on HOP-92 NSCLC, with RPMI-8226 leukemia, with SW-620 colon, in the assay on MDA-MB-435 and in the assay on SNB-75 CNS was above 100 µM each time. Besides, the TGI in the assay on HT29 colon, with K-562 leukemia and with OVCAR-8 ovarian was above 100 µM throughout.

In the case of `CC(C)=CCc1cc2c(cc1O)OC[C@H]1c3cc4c(cc3O[C@@H]21)OCO4`, the TGI is above 100 µM in the assay with HOP-62 NSCLC; above 100 µM in the assay with HOP-92 NSCLC; above 100 µM with SW-620 colon; 91.9 µM in the assay on MDA-MB-435; above 100 µM with SNB-75 CNS; above 100 µM in the assay with HT29 colon. The TGI in the assay on K-562 leukemia and with OVCAR-8 ovarian was above 100 µM each time.

For `Oc1ccc(Nc2c3ccccc3nc3occ(Cl)c23)cc1`, the GI50 in the assay on HOP-62 NSCLC is 4.37 µM; in the assay with HOP-92 NSCLC, 90.5 nM; in the assay on RPMI-8226 leukemia it was 1.61 µM; in the assay on SW-620 colon it was 4.71 µM; with MDA-MB-435, 1.53 µM; in the assay on HT29 colon, 4.49 µM. In addition, the GI50 is 2240 nM in the assay with K-562 leukemia and 5.5 µM in the assay on OVCAR-8 ovarian. Besides, the TGI was 36.2 µM in the assay on HOP-62 NSCLC; 8.96 µM with HOP-92 NSCLC; 4.81 µM in the assay with RPMI-8226 leukemia; above 100 µM with SW-620 colon; 6.51 µM in the assay with MDA-MB-435; above 100 µM with HT29 colon. For the same compound, the TGI is 53.1 µM with K-562 leukemia and 57.9 µM with OVCAR-8 ovarian.

`CC(C(=O)O)c1cccc(Oc2ccccc2)c1` (centres undefined): the GI50 with HOP-62 NSCLC, in the assay on RPMI-8226 leukemia, in the assay on HCC-2998 colon, in the assay with SW-620 colon, in the assay on MDA-MB-435 and with SNB-75 CNS was above 100 µM each time. In addition, the GI50 with HT29 colon was above 100 µM; in the assay on K-562 leukemia, above 100000 nM; with OVCAR-8 ovarian, above 100 µM. Further, the TGI in the assay with HOP-62 NSCLC, with RPMI-8226 leukemia, in the assay with HCC-2998 colon, with SW-620 colon, in the assay on MDA-MB-435 and in the assay on SNB-75 CNS was above 100 µM each time. The TGI in the assay with HT29 colon, in the assay with K-562 leukemia and in the assay with OVCAR-8 ovarian was above 100 µM each time.

On to `O=C(O)c1ccc(C(=O)O)c2c(C(=O)O)ccc(C(=O)O)c12`, for which the TGI in the assay with HOP-62 NSCLC, in the assay on HOP-92 NSCLC, with RPMI-8226 leukemia, in the assay on SW-620 colon, in the assay on MDA-MB-435 and with SNB-75 CNS was above 100 µM each time. The TGI in the assay with HT29 colon, with K-562 leukemia and with OVCAR-8 ovarian was above 100 µM each time.

For `Clc1nc(Cl)nc(Nc2cccc3ccccc23)n1`, the GI50 in the assay on HOP-62 NSCLC was above 100 µM; in the assay on RPMI-8226 leukemia, 39.8 µM; in the assay with HCC-2998 colon, above 100 µM; with SW-620 colon it was 94.7 µM; with MDA-MB-435, 43.6 µM; in the assay with SNB-75 CNS it was above 100 µM. Further, the GI50 is above 100 µM in the assay on HT29 colon, 40800 nM in the assay with K-562 leukemia and above 100 µM in the assay on OVCAR-8 ovarian. Moreover, the TGI in the assay with HOP-62 NSCLC, in the assay on RPMI-8226 leukemia, in the assay with HCC-2998 colon, in the assay on SW-620 colon, with MDA-MB-435 and in the assay on SNB-75 CNS was above 100 µM in each case. Also, the TGI in the assay with HT29 colon, in the assay on K-562 leukemia and in the assay with OVCAR-8 ovarian was above 100 µM in each case.

For the compound `O=C(Nc1cc(C(F)(F)F)ccc1Cl)c1cccc(NC2=C(Cl)C(=O)N(Cc3ccccc3)C2=O)c1`, the GI50 was above 100 µM in the assay with HOP-62 NSCLC; 19100 nM in the assay with HOP-92 NSCLC; 2.92 µM with RPMI-8226 leukemia; 52.7 µM with SW-620 colon; 15.7 µM in the assay on MDA-MB-435; above 100 µM in the assay with SNB-75 CNS. For the same compound, the GI50 is 43.1 µM with HT29 colon, 4230 nM in the assay with K-562 leukemia and 47.6 µM in the assay with OVCAR-8 ovarian. Also, the TGI is above 100 µM in the assay on HOP-62 NSCLC; above 100 µM in the assay on HOP-92 NSCLC; 50 µM with RPMI-8226 leukemia; above 100 µM in the assay with SW-620 colon; above 100 µM in the assay on MDA-MB-435; above 100 µM with SNB-75 CNS. For the same compound, the TGI in the assay with HT29 colon, in the assay with K-562 leukemia and in the assay with OVCAR-8 ovarian was above 100 µM each time.

Values taken from PubChem BioAssay (NCI).
